Tested on: 653999-131-R-J2-PDC complex spheroids, growth inhibition
Assay: Anticancer human tumor 653999-131-R-J2-PDC patient-derived lung adenocarcinoma cell line growth inhibition [RAS]
Settings: for IC50: curve of first compound; for viability, T/C: stronger effect = lower value
Summary of the method: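 Agents were tested in combination matrices in half-log decrements from a top concentration at or near clinical Cmax (10 microM if undetermined). Targets were multi-cell spheroids of tumour lines plus HUVEC and MSC stromal cells.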

[1] = second compound 0.000949 µM, first compound 0.0316 µM
[2] = second compound 0.000949 µM, first compound 0.1 µM
[3] = second compound 0.000949 µM, first compound 0.316 µM
[4] = second compound 0.000949 µM, first compound 1 µM
[5] = second compound 0.000949 µM, first compound 3.16 µM
[6] = second compound 0.000949 µM, first compound 10 µM
[7] = second compound 0.003 µM, first compound 0.0316 µM
[8] = second compound 0.003 µM, first compound 0.1 µM
[9] = second compound 0.003 µM, first compound 0.316 µM
[10] = second compound 0.003 µM, first compound 1 µM
[11] = second compound 0.003 µM, first compound 3.16 µM
[12] = second compound 0.003 µM, first compound 10 µM
[13] = second compound 0.00949 µM, first compound 0.0316 µM
[14] = second compound 0.00949 µM, first compound 0.1 µM
[15] = second compound 0.00949 µM, first compound 0.316 µM
[16] = second compound 0.00949 µM, first compound 1 µM
[17] = second compound 0.00949 µM, first compound 3.16 µM
[18] = second compound 0.00949 µM, first compound 10 µM
[19] = second compound 0.03 µM, first compound 0.0316 µM
[20] = second compound 0.03 µM, first compound 0.1 µM
[21] = second compound 0.03 µM, first compound 0.316 µM
[22] = second compound 0.03 µM, first compound 1 µM
[23] = second compound 0.03 µM, first compound 3.16 µM
[24] = second compound 0.03 µM, first compound 10 µM
[25] = second compound 0.0949 µM, first compound 0.0316 µM
[26] = second compound 0.0949 µM, first compound 0.1 µM
[27] = second compound 0.0949 µM, first compound 0.316 µM
[28] = second compound 0.0949 µM, first compound 1 µM
[29] = second compound 0.0949 µM, first compound 3.16 µM
[30] = second compound 0.0949 µM, first compound 10 µM
[31] = second compound 0.3 µM, first compound 0.0316 µM
[32] = second compound 0.3 µM, first compound 0.1 µM
[33] = second compound 0.3 µM, first compound 0.316 µM
[34] = second compound 0.3 µM, first compound 1 µM
[35] = second compound 0.3 µM, first compound 3.16 µM
[36] = second compound 0.3 µM, first compound 10 µM
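Note: spheroids exposed to the agents for seven days before the readout.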

## CC(C)NCC(C(=O)N1CCN(c2ncnc3c2C(C)CC3O)CC1)c1ccc(Cl)cc1 (stereo unspecified) + CCn1c(-c2cccnc2C(C)OC)c2c3cc(ccc31)N1CCOC(CC(NC(=O)C(C(C)C)N(C)C(=O)C3(F)CCN(C(=O)C#CC(C)(C)N(C)C)CC3)C(=O)N3CCCC(N3)C(=O)OCC(C)(C)C2)C1
Second compound 0.000949 µM
  IC50: 953 nM
Second compound 0.003 µM
  IC50: 1240 nM
Second compound 0.00949 µM
  IC50: 1530 nM
Second compound 0.03 µM
  IC50: 1530 nM
Second compound 0.0949 µM
  IC50: 1160 nM
Second compound 0.3 µM
  IC50: 996 nM
[1]
  viability, T/C: 91%
[2]
  viability, T/C: 110%
[3]
  viability, T/C: 72.1%
[4]
  viability, T/C: 53.1%
[5]
  viability, T/C: 41.6%
[6]
  viability, T/C: 34.6%
[7]
  viability, T/C: 86.8%
[8]
  viability, T/C: 99.8%
[9]
  viability, T/C: 70.2%
[10]
  viability, T/C: 54.3%
[11]
  viability, T/C: 40.6%
[12]
  viability, T/C: 32.9%
[13]
  viability, T/C: 118%
[14]
  viability, T/C: 94.4%
[15]
  viability, T/C: 83.6%
[16]
  viability, T/C: 48.2%
[17]
  viability, T/C: 44.7%
[18]
  viability, T/C: 30.6%
[19]
  viability, T/C: 101%
[20]
  viability, T/C: 85.1%
[21]
  viability, T/C: 76.4%
[22]
  viability, T/C: 53.5%
[23]
  viability, T/C: 40.8%
[24]
  viability, T/C: 31.2%
[25]
  viability, T/C: 109%
[26]
  viability, T/C: 81.7%
[27]
  viability, T/C: 73.3%
[28]
  viability, T/C: 47.3%
[29]
  viability, T/C: 39.9%
[30]
  viability, T/C: 36.5%
[31]
  viability, T/C: 92%
[32]
  viability, T/C: 85.7%
[33]
  viability, T/C: 64.8%
[34]
  viability, T/C: 49.9%
[35]
  viability, T/C: 42.5%
[36]
  viability, T/C: 34.2%

## CC(Nc1ccc2c(c1)OCCn1cc(N3C(=O)OCC3C(F)F)nc1-2)C(N)=O (stereo unspecified) + CCn1c(-c2cccnc2C(C)OC)c2c3cc(ccc31)N1CCOC(CC(NC(=O)C(C(C)C)N(C)C(=O)C3(F)CCN(C(=O)C#CC(C)(C)N(C)C)CC3)C(=O)N3CCCC(N3)C(=O)OCC(C)(C)C2)C1
Second compound 0.000949 µM
  IC50: 772 nM
Second compound 0.003 µM
  IC50: 502 nM
Second compound 0.00949 µM
  IC50: 544 nM
Second compound 0.03 µM
  IC50: 473 nM
Second compound 0.0949 µM
  IC50: 510 nM
Second compound 0.3 µM
  IC50: 442 nM
[1]
  viability, T/C: 85.2%
[2]
  viability, T/C: 79.2%
[3]
  viability, T/C: 66.4%
[4]
  viability, T/C: 44.6%
[5]
  viability, T/C: 29.4%
[6]
  viability, T/C: 20.1%
[7]
  viability, T/C: 88.3%
[8]
  viability, T/C: 70.8%
[9]
  viability, T/C: 59.3%
[10]
  viability, T/C: 38%
[11]
  viability, T/C: 30.1%
[12]
  viability, T/C: 20.3%
[13]
  viability, T/C: 99.2%
[14]
  viability, T/C: 71%
[15]
  viability, T/C: 60.3%
[16]
  viability, T/C: 43.7%
[17]
  viability, T/C: 26.8%
[18]
  viability, T/C: 21.9%
[19]
  viability, T/C: 83.3%
[20]
  viability, T/C: 69.6%
[21]
  viability, T/C: 56.8%
[22]
  viability, T/C: 37%
[23]
  viability, T/C: 33.2%
[24]
  viability, T/C: 20.5%
[25]
  viability, T/C: 85.8%
[26]
  viability, T/C: 73.7%
[27]
  viability, T/C: 57.2%
[28]
  viability, T/C: 40.1%
[29]
  viability, T/C: 29.3%
[30]
  viability, T/C: 23.9%
[31]
  viability, T/C: 92%
[32]
  viability, T/C: 67.5%
[33]
  viability, T/C: 53.5%
[34]
  viability, T/C: 41.2%
[35]
  viability, T/C: 29.4%
[36]
  viability, T/C: 18.3%

## O=C(c1ccc(F)c(F)c1Nc1ccc(I)cc1F)N1CC(O)([C@@H]2CCCCN2)C1 + CCn1c(-c2cccnc2C(C)OC)c2c3cc(ccc31)N1CCOC(CC(NC(=O)C(C(C)C)N(C)C(=O)C3(F)CCN(C(=O)C#CC(C)(C)N(C)C)CC3)C(=O)N3CCCC(N3)C(=O)OCC(C)(C)C2)C1
Second compound 0.000949 µM
  IC50: 110 nM
Second compound 0.003 µM
  IC50: 122 nM
Second compound 0.00949 µM
  IC50: 76.6 nM
Second compound 0.03 µM
  IC50: 81.4 nM
Second compound 0.0949 µM
  IC50: 120 nM
Second compound 0.3 µM
  IC50: 82 nM
Second compound 0.000949 µM, first compound 0.00316 µM
  viability, T/C: 83.6%
Second compound 0.000949 µM, first compound 0.01 µM
  viability, T/C: 74.5%
[1]
  viability, T/C: 68.5%
[2]
  viability, T/C: 55.8%
[3]
  viability, T/C: 20.6%
[4]
  viability, T/C: 12%
Second compound 0.003 µM, first compound 0.00316 µM
  viability, T/C: 82.5%
Second compound 0.003 µM, first compound 0.01 µM
  viability, T/C: 60%
[7]
  viability, T/C: 71.3%
[8]
  viability, T/C: 50.8%
[9]
  viability, T/C: 38.4%
[10]
  viability, T/C: 15.4%
Second compound 0.00949 µM, first compound 0.00316 µM
  viability, T/C: 92.9%
Second compound 0.00949 µM, first compound 0.01 µM
  viability, T/C: 65.2%
[13]
  viability, T/C: 63.7%
[14]
  viability, T/C: 52.3%
[15]
  viability, T/C: 30.1%
[16]
  viability, T/C: 13.2%
Second compound 0.03 µM, first compound 0.00316 µM
  viability, T/C: 77.4%
Second compound 0.03 µM, first compound 0.01 µM
  viability, T/C: 57.8%
[19]
  viability, T/C: 64.5%
[20]
  viability, T/C: 49.6%
[21]
  viability, T/C: 26.2%
[22]
  viability, T/C: 14.2%
Second compound 0.0949 µM, first compound 0.00316 µM
  viability, T/C: 62%
Second compound 0.0949 µM, first compound 0.01 µM
  viability, T/C: 68.1%
[25]
  viability, T/C: 66.5%
[26]
  viability, T/C: 51.7%
[27]
  viability, T/C: 31.4%
[28]
  viability, T/C: 13.5%
Second compound 0.3 µM, first compound 0.00316 µM
  viability, T/C: 65.3%
Second compound 0.3 µM, first compound 0.01 µM
  viability, T/C: 70.2%
[31]
  viability, T/C: 73.1%
[32]
  viability, T/C: 43.4%
[33]
  viability, T/C: 23.5%
[34]
  viability, T/C: 10.4%

Source: PubChem BioAssay AID2060886 (Molecular Pharmacology Branch, DTP, NCI, 2025)
